The text below walks through data of publication PMC11407620, “Repurposing auranofin and meclofenamic acid as energy-metabolism inhibitors and anti-cancer drugs” (PLOS ONE, 2024).

Values joined by “and” are separate entries in the source; they are usually repeats but may differ in a detail not shown here. Equal values may be shown once.

On the set-up of data set [1]: method as in doi:10.1016/j.ccr.2017.02.015, PMID 36770718. To be noted: cited from earlier work.
Details of data set [2]: method as in PMID 27821451, PMID 6411921. As to conditions: patients receiving oral Aur; after 24 h -7 d of treatment; cited from earlier work.
In the next data set the test system is Colorectal COLO205 cells. The experiment in a line: Cell proliferation, 24 h drug exposure. Type of data set: cell-based, human. The procedure: (§1) All metastatic (breast MDA-MB231, MDA-MB468, cervix HeLa, prostate PC3, colorectal HCT116, COLO205, glioblastoma U373), low-metastatic (breast MCF-7) cancer and non-cancer (fibroblast 3T3, cardiomyocytes H9C2) cell lines (American Type Culture Collection, Rockville, MD, USA) used in this study were cultured in Petri dishes in 20 mL of Dulbecco’s Modified Eagle’s Medium (DMEM, Sigma, MO, USA) supplemented with 10% fetal bovine serum (Biowest, Mexico) and 10,000 U penicillin/streptomycin (Sigma-Aldrich, MO, USA). […] For growth and maintenance, cells were incubated in 5% CO2/95% air at 37°C and kept until 80–90% of confluence was reached. Then, cells were harvested, washed by centrifugation and resuspended in Krebs-Ringer buffer (KR, 125 mM NaCl, 5 mM KCl, 25 mM Hepes, 1 mM MgCl2, 1 mM KH2PO4, 1.4 mM CaCl2, pH 7.4) for further use. For experimentation, cancer cells (3–5 x 10^6 cells) were cultured in DMEM (with 25 mM glucose) for 24 h in the absence of drugs. Afterwards, old-medium was replaced with fresh DMEM medium (with 25 mM glucose) in the absence (control, non-treated cells) or in the presence of logarithmic concentrations of Aur and MA for 24 h more, under the same culture conditions described above. Viability of cultured cells was determined by the trypan blue exclusion assay. The protein concentration was determined by the Lowry method.
(§2) For cell proliferation in the presence of drugs, cancer cells (20 x 10^3 cells/well) were grown in 96-well plates containing DMEM (Sigma-Aldrich) plus 10% bovine fetal serum for 24 h. Afterwards, Aur or MA (0.01, 0.1, 10 and 100 μM) were added to the cell cultures and incubated for additional 24 h. The effect of these drugs on cell proliferation was determined in 96-well plates by the MTT (3-[4,5-dimethyl-thiazol-2-yl]-2,5-diphenyltetrazolium bromide) assay. The viability of cancer cells was > 95% after treatment with drugs.

The subject of a further data set is Breast MDA-MB-468 cells. The experiment in a line: Cell proliferation, 24 h drug exposure. Type of data set: cell-based, human. The procedure: as §1, §2
The subject of a further data set is Glioblastoma U373 cells. The experiment in a line: Cell proliferation, 24 h drug exposure. It is filed as cell-based, human. The protocol:
as §1
For cell proliferation in the presence of drugs, cancer cells (20 x 10^3 cells/well) were grown in 96-well plates containing DMEM (Sigma-Aldrich) plus 10% bovine fetal serum for 24 h. […] The effect of these drugs on cell proliferation was determined in 96-well plates by the MTT (3-[4,5-dimethyl-thiazol-2-yl]-2,5-diphenyltetrazolium bromide) assay. The viability of cancer cells was > 95% after treatment with drugs.

A further data set concerns GAPDH. Also noted: method as in PMID 36560881. To be noted: OVCAR-8 cells; Aur 2.5 μM/ 8 h; cited from earlier work.
The test system of data set [3] is HeLa cells. The experiment in a line: ROS production and total content (DHE). It is filed as cell-based, human. As to conditions: Aur 1.7 μM, 24 h. The protocol:
Fig 3 Radical oxygen species in Aur-treated cancer cells. (A) ROS production and (B) ROS total content in DHE loaded-metastatic cancer cells. The 100% fluorescence corresponds to 1.9 ± 0.26 (n = 3); 1.2 ± 0.09 (n = 3); and 0.64 (n = 2) fluorescence arbitrary units for HeLa, MDA-MB-231 and U373 cells, respectively. The Aur concentration added was 1.7, 0.8 and 0.6 μM for HeLa, MDA-MB-231 and U373 cells, respectively. The contents of ROS shown were determined at the 120 min end-point, after adding 25 μM DHE. *p < 0.05 vs. Control (Non- treated cells).

The test system of data set [4] is HeLa cells. The experiment in a line: Cell invasiveness, Boyden chamber. Type of data set: cell-based. As to conditions: Homo sapiens, MA 10 μM, 24 h. The procedure:
The 96-multiwell Boyden chambers (Merck Millipore, MA, USA) assay was performed for cellular invasiveness detection. Cancer cells (5 × 10^4 cells/well) were re-suspended in free-serum DMEM and placed in the upper Boyden chamber compartment. Free-serum DMEM was also placed in the lower compartment of the chamber. Afterwards, the Boyden chamber was placed at 37°C and 95% air/5% CO2 for 24 h. Invasive cancer cells within the lower chamber compartment were detected by using the calcein-AM (60 nM, 1 h) assay at 37°C. Calcein-fluorescence was measured at λexcitation = 485 nm and λemission = 520 nm in a Nunclon microplate reader (Roskilde, Denmark).
S1 Figure. Cancer invasiveness assay in metastatic cancer cells exposed to MA (A) and perhexiline (B) for 24 h. All cancer cell invasiveness was compared with MDA-MB-231 cells, which are cancer cells with the highest invasiveness ability. n=3; *P < 0.05 vs. MDA-MB-231 non-treated cells.

The test system of a further data set is MDA-MB-468 cells. The experiment in a line: OxPhos flux (oligomycin-sensitive respiration) in intact cells. It is filed as cell-based, human. To be noted: +MA 50 μM, 24 h. The procedure:
For oxidative phosphorylation (OxPhos) flux, cells (2–5 mg protein/mL) were incubated at 37°C in air saturated KR medium plus 5 mM glucose. To distinguish the oxygen consumption associated to OxPhos, the cells were incubated with 5 μM oligomycin (Sigma-Aldrich, MO, USA), a potent, specific, and permeable inhibitor of the mitochondrial ATP synthase. The net OxPhos rate was determined by using a Clark type electrode, as previously described and by using a high-resolution respirometer (Oroboros Instruments, Innsbruck, Austria) at 37°C. The contribution of OxPhos and glycolysis to the cellular ATP supply was determined, respectively, from the net OxPhos rate (oligomycin-sensitive respiration) multiplied by the ATP/O or P»/O2 ratio that corresponds to 2.5 or 5, and from the rate of lactate production, assuming a stoichiometry of 1 mol of ATP produced per 1 mol of lactate produced.

Turning to `CC(=O)OC[C@H]1O[C@@H]([S-])[C@H](OC(C)=O)[C@@H](OC(C)=O)[C@@H]1OC(C)=O.CCP(CC)CC.[Au+]` [Aur, [1-(thio-κS)-β-D-glucopyranose-2,3,4,6-tetraacetyl] (triethylphosphine)-gold], the “stability in aqueous media” value in data set [1] was “unstable”. For the same compound, the “blood Aur levels” value in [2] is 49–310 ng/mL and 0.1–0.6 μM. The IC50 in the data set with Colorectal COLO205 cells (Colorectal COLO205, 24 h, read-out: IC50 for proliferation cell rate) came to 6 ± 2 µM; with Breast MDA-MB-468 cells (Breast MDA-MB-468, 24 h, read-out: IC50 for proliferation cell rate), 2 ± 1 µM; in the data set with Glioblastoma U373 cells (Glioblastoma U373, 24 h, read-out: IC50 for proliferation cell rate) it was 0.6 ± 0.1 µM. Further, the entries for the “TI ratio (3T3/ cancer cells)” value in the data set on Colorectal COLO205 cells (IC50 3T3 / IC50 COLO 205), in the data set with Breast MDA-MB-468 cells (IC50 3T3 / IC50 MDA-MB-468) and in the data set with Glioblastoma U373 cells (IC50 3T3 / IC50 U373) were 7, 21 and 70, respectively. Besides, the “TI ratio (H9C2/cancer cells)” value with Colorectal COLO205 cells (IC50 H9C2 / IC50 COLO 205) is on record as 13; with Breast MDA-MB-468 cells (IC50 H9C2 / IC50 MDA-MB-468) it was 39; in the data set with Glioblastoma U373 cells (IC50 H9C2 / IC50 U373), 130. In the data set with GAPDH, the “lower GAPDH activity vs. non-treated cells” value is 40%. Also, the ROS production rate result in the data set on HeLa cells [3] was “did not bring about increments”. The “total ROS levels after 2 h measurement” value in the data set with HeLa cells [3] is recorded as “did not bring about increments”.

`Cc1ccc(Cl)c(Nc2ccccc2C(=O)O)c1Cl` [MA, Meclofenamic acid]: the inhibition at 10 µM in the data set on HeLa cells [4] came out at 65%. In the data set on MDA-MB-468 cells, the OxPhos flux is reported as 4.8 ± 0.8 nmol O2 min^-1 mg protein^-1.

One may read the inhibition as how much of the control response was suppressed. A lower inhibition goes with a response near the control.
